# Reference: US20200131132A1, “FARNESOID X RECEPTOR AGONISTS AND USES THEREOF” (Metacrine, Inc., priority 2017, published 2020)
# Target: T1, hFXR (Homo sapiens, UniProt Q96RI1)
# T1 construct: expressed in transfected cells; host or cells: CV-1 cells
# T1 sequence (Q96RI1 1-486): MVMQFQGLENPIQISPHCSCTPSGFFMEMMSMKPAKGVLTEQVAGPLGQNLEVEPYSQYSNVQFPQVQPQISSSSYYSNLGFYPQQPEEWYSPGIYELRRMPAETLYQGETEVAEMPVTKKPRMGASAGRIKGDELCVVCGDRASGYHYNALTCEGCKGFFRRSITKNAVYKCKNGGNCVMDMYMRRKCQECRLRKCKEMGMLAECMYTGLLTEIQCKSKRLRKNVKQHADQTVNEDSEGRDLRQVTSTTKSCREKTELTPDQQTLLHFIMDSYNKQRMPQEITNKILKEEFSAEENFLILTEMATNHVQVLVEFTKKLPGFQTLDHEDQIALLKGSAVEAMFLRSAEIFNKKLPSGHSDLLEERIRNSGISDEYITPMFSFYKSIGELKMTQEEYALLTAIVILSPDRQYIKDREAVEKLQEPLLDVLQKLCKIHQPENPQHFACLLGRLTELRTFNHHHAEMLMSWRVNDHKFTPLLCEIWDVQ
# T1 sequence (P19793 1-462 partner): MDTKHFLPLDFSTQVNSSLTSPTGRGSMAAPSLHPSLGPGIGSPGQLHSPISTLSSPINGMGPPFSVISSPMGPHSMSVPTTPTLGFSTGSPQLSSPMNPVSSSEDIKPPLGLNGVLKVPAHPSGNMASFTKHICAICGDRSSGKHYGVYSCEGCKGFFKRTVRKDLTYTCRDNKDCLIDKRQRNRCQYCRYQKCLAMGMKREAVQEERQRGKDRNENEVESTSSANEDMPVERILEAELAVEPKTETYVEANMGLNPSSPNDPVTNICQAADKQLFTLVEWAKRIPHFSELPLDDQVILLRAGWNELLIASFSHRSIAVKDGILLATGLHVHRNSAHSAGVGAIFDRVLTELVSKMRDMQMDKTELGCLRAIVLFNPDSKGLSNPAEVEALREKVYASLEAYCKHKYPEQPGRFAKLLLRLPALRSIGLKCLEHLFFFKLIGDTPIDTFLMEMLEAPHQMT
# Assay: In Vitro FXR Assay (TK)
# Type: cell-based
# Conditions: CV-1 cells transfected with hFXR, hRXR, TK-ECRE-luc and pCMX-YFP; compounds incubated 18 hrs; luminescence
# Procedure, shortened: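 CV-1 cells transiently co-transfected with hFXR, hRXR, TK-ECRE-luc and pCMX-YFP plasmids in charcoal-stripped serum medium. Serially diluted compounds added, cells incubated 18 h at 37° C, then lysed and luminescence read.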
row,EC50 [nM],Compound
1,1000 to 10000,"COc1ccc2c(N(Cc3ccc(-c4ccc(OC)c(C)c4)c(CO)c3)C(=O)CC(C)(C)C)nccc2c1 [Compound 21.01, N-((2-(Hydroxymethyl)-4′-methoxy-3′-methyl-[1,1′-biphenyl]-4-yl)methyl)-N-(6-methoxyisoquinolin-1-yl)-3,3-dimethylbutanamide]"
2,≤ 1000,"COc1ccc(-c2ccc(CN(C(=O)CC(C)(C)C)c3nccc4cc(N5CCCC(O)C5)ccc34)cc2)cc1C (centres unmarked) [Compound 6.17, N-(6-(3-Hydroxypiperidin-1-yl)isoquinolin-1-yl)-N-((4′-methoxy-3′-methyl-[1,1′-biphenyl]-4-yl)methyl)-3,3-dimethylbutanamide]"
3,≤ 1000,"COc1ccc(-c2ccc(CN(C(=O)CC(C)(C)C)c3nccc4cc(OCC(=O)N(C)C)ccc34)cc2)cc1C [Compound 8.02, N-(6-(2-(Dimethylamino)-2-oxoethoxy)isoquinolin-1-yl)-N-((4′-methoxy-3′-methyl-[1,1′-biphenyl]-4-yl)methyl)-3,3-dimethylbutanamide]"
4,≤ 1000,"COc1ccc(-c2ccc(CN(C(=O)CC(C)(C)C)c3nccc4cc(CCCO)ccc34)cc2)cc1C [Compound 24, N-(6-(3-Hydroxypropyl)isoquinolin-1-yl)-N-((4′-methoxy-3′-methyl-[1,1′-biphenyl]-4-yl)methyl)-3,3-dimethylbutanamide]"
5,≤ 1000,"COc1ccc(-c2ccc(CN(C(=O)CC(C)(C)C)c3nccc4cc(C(C)O)ccc34)cc2)cc1C (centres unmarked) [Compound 26, N-(6-(1-Hydroxyethyl)isoquinolin-1-yl)-N-((4′-methoxy-3′-methyl-[1,1′-biphenyl]-4-yl)methyl)-3,3-dimethylbutanamide]"
6,≤ 1000,"COc1ccc(-c2ccc(CN(C(=O)CC(C)(C)C)c3nccc4ccccc34)cc2)cc1C [Compound 20, N-(Isoquinolin-1-yl)-N-((4′-methoxy-3′-methyl-[1,1′-biphenyl]-4-yl)methyl)-3,3-dimethylbutanamide]"
7,> 10000,"COc1ccc(-c2ccc(CN(C(=O)CC(C)(C)C)c3nccc4cc(OC5CCNCC5)ccc34)cc2)cc1C [Compound 28, N-((4′-Methoxy-3′-methyl-[1,1′-biphenyl]-4-yl)methyl)-3,3-dimethyl-N-(6-(piperidin-4-yloxy)isoquinolin-1-yl)butanamide]"
8,≤ 1000,"COc1ccc(-c2ccc(CN(C(=O)CC(C)(C)C)c3nccc4cc(N5CCCC5)ccc34)cc2)cc1C [Compound 6.08, N-((4′-Methoxy-3′-methyl-[1,1′-biphenyl]-4-yl)methyl)-3,3-dimethyl-N-(6-(pyrrolidin-1-yl)isoquinolin-1-yl)butanamide]"
9,1000 to 10000,"COc1ccc(-c2ccc(CN(C(=O)CC(C)(C)C)c3nccc4cc(N5CCN(C)CC5)ccc34)cc2)cc1C [Compound 6.05, N-((4′-Methoxy-3′-methyl-[1,1′-biphenyl]-4-yl)methyl)-3,3-dimethyl-N-(6-(4-methylpiperazin-1-yl)isoquinolin-1-yl)butanamide]"
10,1000 to 10000,"COc1ccc(-c2ccc(CN(C(=O)CC(C)(C)C)c3nccc4cc(COCC(=O)O)ccc34)cc2)cc1C [Compound 29.01, 2-((1-(N-((4′-Methoxy-3′-methyl-[1,1′-biphenyl]-4-yl)methyl)-3,3-dimethylbutanamido)isoquinolin-6-yl)methoxy)acetic acid]"
11,≤ 1000,"COc1ccc(-c2ccc(CN(C(=O)CC(C)(C)C)c3nccc4cc(OCC[S+](C)[O-])ccc34)cc2)cc1C (centres unmarked) [Compound 33, N-((4′-Methoxy-3′-methyl-[1,1′-biphenyl]-4-yl)methyl)-3,3-dimethyl-N-(6-(2-(methylsulfinyl)ethoxy)isoquinolin-1-yl)butanamide]"
12,> 10000,"COc1ccc(-c2ccc(CN(C(=O)CC(C)(C)C)c3nccc4cc(OC5CN(C)C5)ccc34)cc2)cc1C [Compound 30, N-((4′-Methoxy-3′-methyl-[1,1′-biphenyl]-4-yl)methyl)-3,3-dimethyl-N-(6-((1-methylazetidin-3-yl)oxy)isoquinolin-1-yl)butanamide]"
13,≤ 1000,"COc1ccc(-c2ccc(CN(C(=O)CC(C)(C)C)c3nccc4cc(OC5COC5)ccc34)cc2)cc1C [Compound 8.09, N-((4′-Methoxy-3′-methyl-[1,1′-biphenyl]-4-yl)methyl)-3,3-dimethyl-N-(6-(oxetan-3-yloxy)isoquinolin-1-yl)butanamide]"
14,> 10000,"COc1ccc(-c2ccc(CN(C(=O)CC(C)(C)C)c3ccnc4ccccc34)cc2)cc1C [Compound 4.08, N-((4′-Methoxy-3′-methyl-[1,1′-biphenyl]-4-yl)methyl)-3,3-dimethyl-N-(quinolin-4-yl)butanamide]"
15,> 10000,"COc1ccc(-c2ccc(CN(C(=O)CC(C)(C)C)c3nccc4cc(OC5CN(C(=O)OC(C)(C)C)C5)ccc34)cc2)cc1C [Compound 8.07, tert-Butyl 3-((1-(N-((4′-methoxy-3′-methyl-[1,1′-biphenyl]-4-yl)methyl)-3,3-dimethylbutanamido)isoquinolin-6-yl)oxy)azetidine-1-carboxylate]"
16,≤ 1000,"COC(=O)COCc1ccc2c(N(Cc3ccc(-c4ccc(OC)c(C)c4)cc3)C(=O)CC(C)(C)C)nccc2c1 [Compound 9.02, Methyl 2-((1-(N-((4′-methoxy-3′-methyl-[1,1′-biphenyl]-4-yl)methyl)-3,3-dimethylbutanamido)isoquinolin-6-yl)methoxy)acetate]"
17,> 10000,"COc1ccc(-c2ccc(CN(C(C)=O)c3nccc4cc(C(C)(C)O)ccc34)cc2)cc1C [Compound 18, N-(6-(2-Hydroxypropan-2-yl)isoquinolin-1-yl)-N-((4′-methoxy-3′-methyl-[1,1′-biphenyl]-4-yl)methyl)acetamide]"
18,1000 to 10000,"COc1ccc(-c2ccc(CN(C(=O)CC(C)(C)C)c3nccc4c(OC)cccc34)cc2)cc1C [Compound 11.04, N-((4′-Methoxy-3′-methyl-[1,1′-biphenyl]-4-yl)methyl)-N-(5-methoxyisoquinolin-1-yl)-3,3-dimethylbutanamide]"
19,≤ 1000,"COc1ccc(-c2ccc(CN(C(=O)CC(C)(C)C)c3nccc4cc(N5CCC(O)C5)cnc34)cc2)cc1C (centres unmarked) [Compound 6.2, N-(3-(3-Hydroxypyrrolidin-1-yl)-1,7-naphthyridin-8-yl)-N-((4′-methoxy-3′-methyl-[1,1′-biphenyl]-4-yl)methyl)-3,3-dimethylbutanamide]"
20,≤ 1000,"COC(=O)c1cc(CN(C(=O)CC(C)(C)C)c2nccc3cc(OC)ccc23)ccc1-c1ccc(OC)c(C)c1 [Compound 20.02, Methyl 4′-methoxy-4-((N-(6-methoxyisoquinolin-1-yl)-3,3-dimethylbutanamido)methyl)-3′-methyl-[1,1′-biphenyl]-2-carboxylate]"
21,≤ 1000,"COc1ccc(-c2ccc(CN(C(=O)CC(C)(C)C)c3nccc4cc(N5CCOCC5)ccc34)cc2)cc1C [Compound 6.06, N-((4′-Methoxy-3′-methyl-[1,1′-biphenyl]-4-yl)methyl)-3,3-dimethyl-N-(6-morpholinoisoquinolin-1-yl)butanamide]"
22,≤ 1000,"COc1ccc(-c2ccc(CN(C(=O)CC(C)(C)C)c3nccc4cc(CC#N)ccc34)cc2)cc1C [Compound 27, N-(6-(Cyanomethyl)isoquinolin-1-yl)-N-((4′-methoxy-3′-methyl-[1,1′-biphenyl]-4-yl)methyl)-3,3-dimethylbutanamide]"
23,≤ 1000,"COCc1ccc2c(N(Cc3ccc(-c4ccc(OC)c(C)c4)cc3)C(=O)CC(C)(C)C)nccc2c1 [Compound 9.03, N-((4′-Methoxy-3′-methyl-[1,1′-biphenyl]-4-yl)methyl)-N-(6-(methoxymethyl)isoquinolin-1-yl)-3,3-dimethylbutanamide]"
24,≤ 1000,"COc1ccc2c(N(Cc3ccc(-c4ccc(OC)c(C)c4)cc3)C(=O)CC(C)(C)C)nccc2c1 [Compound 4.02, N-((4′-Methoxy-3′-methyl-[1,1′-biphenyl]-4-yl)methyl)-N-(6-methoxyisoquinolin-1-yl)-3,3-dimethylbutanamide]"
25,> 10000,"COc1ccc(-c2ccc(CN(C(=O)CC(C)(C)C)c3nccc4c(Br)cccc34)cc2)cc1C [Compound 4.07, N-(5-Bromoisoquinolin-1-yl)-N-((4′-methoxy-3′-methyl-[1,1′-biphenyl]-4-yl)methyl)-3,3-dimethylbutanamide]"
26,1000 to 10000,"COc1ccc2c(N(Cc3ccc(-c4ccc(OC)c(C)c4)cc3CO)C(=O)CC(C)(C)C)nccc2c1 [Compound 21, N-((3-(Hydroxymethyl)-4′-methoxy-3′-methyl-[1,1′-biphenyl]-4-yl)methyl)-N-(6-methoxyisoquinolin-1-yl)-3,3-dimethylbutanamide]"
